Literature values as cited in patent US11975079B2, “Truncated Evans Blue modified fibroblast activation protein inhibitor, preparation method and application thereof” (YANTAI LANNACHENG BIOTECHNOLOGY CO., LTD., priority 2021, dated 2024).

N#C[C@@H]1CCCN1C(=O)CNC(=O)c1ccnc2ccc(OCCCN3CCN(C(=O)CN4CCN(CC(=O)O)CCN(CC(=O)O)CCN(CC(=O)O)CC4)CC3)cc12 [FAPI-02]
decrease of retained dose at tumor site (24 hours later): about 75% | clearance in blood circulation (according to current reports): completely cleared in blood circulation within one hour
